These results are taken from ChEMBL document CHEMBL4483862, “Open-source discovery of chemical leads for next-generation chemoprotective antimalarials” (2018).

This assay deals with Plasmodium berghei. Briefly: Luciferase/luciferin-expressing antifolate-resistant parasites were used to infect a culture of HepG2 cells that were pre-incubated with compounds. Infected hepatocytes emit light due to the luciferase reaction. Assay results are presented as the percent inhibition of light emission compared to control. […]. It counts as functional. The conditions noted are these: sporozoite; for IC90: read-out: LUCIFERASE INFECTION ASSAY - IC90.

Where [1] appears, read: read-out: LUCIFERASE INFECTION ASSAY - IC50.

Each structure is given as a SMILES string.

As usually defined, the IC50 is the midpoint of a concentration-inhibition curve. The IC90 is the concentration needed for an effect of 90%. Consider `COc1ccccc1-c1ccnc2n[nH]c(-c3cc(OC)c(OC)c(OC)c3)c12`, for which the IC90 is 3.93 µM. In addition, the IC50 (HEPG2TOX_HILL_SLOPE 2.69, HEPG2TOX_R_SQUARED 0.93, PBLUC_HILL_SLOPE 7.13, PBLUC_R_SQUARED 0.294, read-out: LUCIFERASE INFECTION ASSAY - IC50) amounted to 2.89 µM.
Regarding `Fc1ccc(-c2csc3ncnc(Sc4nnc(NC5CC5)s4)c23)cc1`, the IC90 was greater than 10 µM. In addition, the IC50 under setting [1] is greater than 10 µM.
For the molecule `O=C(CN1CSCC1=O)Nc1nc2ccccc2[nH]1`, the IC90 was greater than 10 µM. Also, the IC50 under setting [1] is greater than 10 µM.
Take `Cc1cc(C)c(NC(=O)CNC(=O)c2ccc(-c3ccccc3)cc2)c(C)c1`: the IC90 is greater than 10 µM. Further, the IC50 (PBLUC_HILL_SLOPE 11.6, PBLUC_R_SQUARED 0.0183, read-out: LUCIFERASE INFECTION ASSAY - IC50) was greater than 10 µM.
`CCNC(=O)c1nn(Cc2ccccc2)c2c1CC(NCC(C)C)CC2` (centres undefined): the IC90 is greater than 9.31 µM. Further, the 50% inhibitory concentration (IC50) (PBLUC_HILL_SLOPE 1.56, PBLUC_R_SQUARED 0.224, read-out: LUCIFERASE INFECTION ASSAY - IC50) stood at 6.64 µM.
Consider `Cc1ccc(N2C(=O)c3ccccc3C(C=NNC(=O)c3ccc(CSc4ccc(Cl)cc4)cc3)C2=O)cc1C` (centres undefined), for which the IC90 was greater than 10 µM. Moreover, the IC50 (FFLUC_HILL_SLOPE 1.61, FFLUC_R_SQUARED 0.665, HEPG2TOX_HILL_SLOPE 1.11, HEPG2TOX_R_SQUARED 0.878, read-out: LUCIFERASE INFECTION ASSAY - IC50) was greater than 10 µM.
Take `CC(C)(C)c1cc(-c2nccs2)ccc1/C=N/O`: the IC90 is greater than 12.7 µM. Besides, the IC50 under setting [1] is greater than 12.7 µM.
Consider `Cc1nn(-c2ccccc2)nc1C(=O)NCc1ccccc1-c1ccc(CN(C)C)cc1`, for which the IC90 worked out at 5.83 µM. Under setting [1], the half-inhibitory concentration (IC50) stood at 3.7 µM.
Regarding `CCCCCCCCCCOCC[N+]1(C)CCOCC1`, the IC90 stood at 7.47 µM. The IC50 (HEPG2TOX_HILL_SLOPE 3.29, HEPG2TOX_R_SQUARED 0.591, PBLUC_HILL_SLOPE 1.92, PBLUC_R_SQUARED 0.78, read-out: LUCIFERASE INFECTION ASSAY - IC50) stood at 2.38 µM.
With `FC(F)(F)c1cccc(-c2cnc3ccc(-c4cccs4)nn23)c1`, the IC90 was greater than 10 µM. The concentration for half-maximal inhibition (IC50) under setting [1] was greater than 10 µM.
In the case of `COc1ccc(-c2cnc3cnc(-c4cnn(C)c4)cn23)cc1`, the IC90 was greater than 10.8 µM. The IC50 (HEPG2TOX_HILL_SLOPE 0.995, HEPG2TOX_R_SQUARED 0.66, PBLUC_HILL_SLOPE 1.64, PBLUC_R_SQUARED 0.772, read-out: LUCIFERASE INFECTION ASSAY - IC50) worked out at 3.01 µM.
On to `CCCn1c(SCC2=C(C(=O)OCC)C(C)NC(=O)N2)nc2sc3c(c2c1=O)CCC(C(C)(C)CC)C3` (centres undefined), for which the IC90 is greater than 10 µM. Under setting [1], the IC50 is greater than 10 µM.
In the case of `CC(C)c1csc(NC(=O)c2cnn(-c3ccccc3F)c2C(F)(F)F)n1`, the concentration for an effect of 90% (IC90) came to 2.32 µM. Moreover, the IC50 (FFLUC_HILL_SLOPE 1.67, FFLUC_R_SQUARED 0.227, HEPG2TOX_HILL_SLOPE 2.85, HEPG2TOX_R_SQUARED 0.664, PBLUC_HILL_SLOPE 0.553, PBLUC_R_SQUARED 0.884, read-out: LUCIFERASE INFECTION ASSAY - IC50) is 0.0438 µM.
`Nc1nccnc1C(=O)Nc1nc2ccc(Oc3ccccc3)cc2s1`: the IC90 was greater than 10 µM. In addition, the IC50 under setting [1] is greater than 10 µM.
For `O=C(Nc1nonc1-c1ccc(Cl)cc1)C(c1ccccc1)c1ccccc1`, the IC90 was found to be 8.22 µM. Further, the IC50 (FFLUC_HILL_SLOPE 3.18, FFLUC_R_SQUARED 0.644, PBLUC_HILL_SLOPE 3.44, PBLUC_R_SQUARED 0.465, read-out: LUCIFERASE INFECTION ASSAY - IC50) stood at 4.34 µM.
Take `CCNc1ccc(C(=O)OCC)cc1NC(=O)c1cccc(N(C)C)c1`: the IC90 was found to be 2.65 µM. Besides, the IC50 (HEPG2TOX_HILL_SLOPE 1.36, HEPG2TOX_R_SQUARED 0.981, PBLUC_HILL_SLOPE 2.44, PBLUC_R_SQUARED 0.636, read-out: LUCIFERASE INFECTION ASSAY - IC50) was found to be 1.08 µM.
On to `Cc1ccc(Nc2nc(CSc3nc4ccccc4c(=O)n3CCCCCCC(C)C)cs2)cc1`, for which the IC90 was greater than 10 µM. Where the note is “PBLUC_HILL_SLOPE 4.69, PBLUC_R_SQUARED 0.352, read-out: LUCIFERASE INFECTION ASSAY - IC50”, the IC50 stood at 7.63 µM.
`O=C(c1ccccc1)C1(c2nc3ccccc3s2)Sc2ccccc2C1=O` (centres undefined): the IC90 was determined as 7.72 µM. Also, the IC50 (HEPG2TOX_HILL_SLOPE 2.24, HEPG2TOX_R_SQUARED 0.913, PBLUC_HILL_SLOPE 6.06, PBLUC_R_SQUARED 0.741, read-out: LUCIFERASE INFECTION ASSAY - IC50) was 5.37 µM.
In the case of `N#Cc1ccc(CNC(=S)Nc2ccc(Cl)c(Cl)c2)cc1`, the IC90 was found to be 9.71 µM. Moreover, the IC50 (HEPG2TOX_HILL_SLOPE 2.37, HEPG2TOX_R_SQUARED 0.471, PBLUC_HILL_SLOPE 2.37, PBLUC_R_SQUARED 0.613, read-out: LUCIFERASE INFECTION ASSAY - IC50) stood at 3.85 µM.
In the case of `CN(C)c1cccc(-c2cnc3sc(NCc4ccccc4)nn23)c1`, the IC90 came to 3.57 µM. Moreover, the IC50 (PBLUC_HILL_SLOPE 15, PBLUC_R_SQUARED 0.389, read-out: LUCIFERASE INFECTION ASSAY - IC50) was determined as 3.08 µM.
Regarding `Cc1c(C)n(CCN(C)C)c2ncn3nc(-c4ccccc4O)nc3c12`, the IC90 is greater than 9.42 µM. In addition, the IC50 (PBLUC_HILL_SLOPE 1.46, PBLUC_R_SQUARED 0.808, read-out: LUCIFERASE INFECTION ASSAY - IC50) turned out to be 2.21 µM.
As for `CCOc1cc(/C=C(/C(=O)c2ccc(Br)cc2)c2nc3ccccc3[nH]2)ccc1O`, the 90% effect concentration (IC90) was found to be 4.59 µM. Further, the IC50 (PBLUC_HILL_SLOPE 158, PBLUC_R_SQUARED 0.0148, read-out: LUCIFERASE INFECTION ASSAY - IC50) turned out to be 4.53 µM.
Take `CC(C)(C)c1cc(NS(=O)(=O)c2cc(C(F)(F)F)cc(C(F)(F)F)c2)c(C#N)s1`: the IC90 turned out to be 2.55 µM. Further, the IC50 (HEPG2TOX_HILL_SLOPE 3.04, HEPG2TOX_R_SQUARED 0.973, PBLUC_HILL_SLOPE 26.7, PBLUC_R_SQUARED 0.729, read-out: LUCIFERASE INFECTION ASSAY - IC50) came out at 2.35 µM.
`Cc1nnnn1/C(=C\c1cccc(F)c1)C(=O)NC(C)c1cc2ccccc2o1` (centres undefined): the IC90 came to 4.08 µM. Where the note is “HEPG2TOX_HILL_SLOPE 3.7, HEPG2TOX_R_SQUARED 0.887, PBLUC_HILL_SLOPE 12.4, PBLUC_R_SQUARED 0.779, read-out: LUCIFERASE INFECTION ASSAY - IC50”, the IC50 was 3.42 µM.
Turning to `CC(C)Oc1ccc(C(=O)NCC(=O)Nc2nc3c(s2)CCCC3)cc1`, the IC90 stood at 4.24 µM. For the same molecule, the IC50 (PBLUC_HILL_SLOPE 9.11, PBLUC_R_SQUARED 0.281, read-out: LUCIFERASE INFECTION ASSAY - IC50) amounted to 3.33 µM.
`COc1ccc(C(CNC(=O)c2cc3cc(Br)ccc3[nH]2)N2CCCC2)cc1` (centres undefined): the IC90 is greater than 10 µM. Where the note is “PBLUC_HILL_SLOPE 3.58, PBLUC_R_SQUARED 0.137, read-out: LUCIFERASE INFECTION ASSAY - IC50”, the half-maximal inhibitory concentration (IC50) was greater than 10 µM.
In the case of `O=S(=O)(NCCNc1cnccn1)c1ccc(OC(F)(F)F)cc1`, the IC90 is greater than 10 µM. For the same molecule, the half-maximal inhibitory concentration (IC50) under setting [1] is greater than 10 µM.
`CCCc1c(O)nc2ccc(C)cc2c1C`: the 90% effect concentration (IC90) was greater than 15.3 µM. Also, the IC50 (HEPG2TOX_HILL_SLOPE 1.25, HEPG2TOX_R_SQUARED 0.942, PBLUC_HILL_SLOPE 1.62, PBLUC_R_SQUARED 0.0626, read-out: LUCIFERASE INFECTION ASSAY - IC50) came to 11.3 µM.
Consider `Cc1ccc(CSc2nnc(-c3ccccc3N)c(O)n2)cc1`, for which the IC90 is greater than 10.2 µM. For the same molecule, the IC50 under setting [1] was greater than 10.2 µM.
As for `Cc1[nH]c(=O)[nH]c(=O)c1C(=O)/C=C/c1cn(-c2ccccc2)nc1-c1cc2ccccc2o1`, the IC90 is greater than 10 µM. In addition, the IC50 under setting [1] is greater than 10 µM.
As for `CCCCN1C(=O)c2ccc(C(=O)C(C#N)c3nc4ccccc4[nH]3)cc2C1=O` (centres undefined), the IC90 is greater than 10 µM. Also, the concentration for half-maximal inhibition (IC50) under setting [1] is greater than 10 µM.
As to `CN(Cc1ccc(Cl)s1)C(=O)Cn1ncc(Br)c(Br)c1=O`, the IC90 was determined as 8.7 µM. Where the note is “HEPG2TOX_HILL_SLOPE 8.71, HEPG2TOX_R_SQUARED 0.0596, PBLUC_HILL_SLOPE 2.5, PBLUC_R_SQUARED 0.642, read-out: LUCIFERASE INFECTION ASSAY - IC50”, the IC50 is 3.61 µM.
Turning to `CCOc1ccc(-c2n[nH]c3c2C(c2ccccc2)N(c2ccccc2)C3=O)cc1` (centres undefined), the IC90 was greater than 8.34 µM. For the same molecule, the IC50 (FFLUC_HILL_SLOPE 11.9, FFLUC_R_SQUARED 0.867, HEPG2TOX_HILL_SLOPE 2.22, HEPG2TOX_R_SQUARED 0.878, read-out: LUCIFERASE INFECTION ASSAY - IC50) was greater than 8.34 µM.
As for `CCC1(c2ccc(F)cc2)NC(=O)N(CC(=O)Nc2ccc(-c3nc4ccc(C)cc4s3)cc2)C1=O` (centres undefined), the IC90 is greater than 10 µM. Under setting [1], the IC50 turned out to be 9.87 µM.
Take `CCN(CC)CCn1c(NC(=O)c2cc3c(C)nn(Cc4ccccc4)c3s2)nc2ccccc21`: the IC90 is 5.29 µM. Also, the IC50 (FFLUC_HILL_SLOPE 11, FFLUC_R_SQUARED 0.377, PBLUC_HILL_SLOPE 1.67, PBLUC_R_SQUARED 0.43, read-out: LUCIFERASE INFECTION ASSAY - IC50) came to 1.42 µM.
Take `CC(C)NC(=O)c1c(NC(=O)c2cccc(Cl)c2)nc2ccccn12`: the IC90 was determined as 2.22 µM. Further, the IC50 (HEPG2TOX_HILL_SLOPE 1.2, HEPG2TOX_R_SQUARED 0.976, PBLUC_HILL_SLOPE 4.43, PBLUC_R_SQUARED 0.437, read-out: LUCIFERASE INFECTION ASSAY - IC50) was determined as 1.35 µM.
As for `CNc1nc2cnc(Nc3cccc(C(C)C)c3)cc2n1CCOC`, the concentration for an effect of 90% (IC90) is greater than 10 µM. Further, the half-maximal inhibitory concentration (IC50) (HEPG2TOX_HILL_SLOPE 0.218, HEPG2TOX_R_SQUARED 0.135, read-out: LUCIFERASE INFECTION ASSAY - IC50) was greater than 10 µM.
